Laboratory results published in patent US10239887B2, “Positive allosteric modulators of the muscarinic acetylcholine receptor M4” (Vanderbilt University, priority 2016, dated 2019).

Target: T1, human mAChR M4 (Homo sapiens, UniProt P08173)
T1 sequence (P08173 1-479): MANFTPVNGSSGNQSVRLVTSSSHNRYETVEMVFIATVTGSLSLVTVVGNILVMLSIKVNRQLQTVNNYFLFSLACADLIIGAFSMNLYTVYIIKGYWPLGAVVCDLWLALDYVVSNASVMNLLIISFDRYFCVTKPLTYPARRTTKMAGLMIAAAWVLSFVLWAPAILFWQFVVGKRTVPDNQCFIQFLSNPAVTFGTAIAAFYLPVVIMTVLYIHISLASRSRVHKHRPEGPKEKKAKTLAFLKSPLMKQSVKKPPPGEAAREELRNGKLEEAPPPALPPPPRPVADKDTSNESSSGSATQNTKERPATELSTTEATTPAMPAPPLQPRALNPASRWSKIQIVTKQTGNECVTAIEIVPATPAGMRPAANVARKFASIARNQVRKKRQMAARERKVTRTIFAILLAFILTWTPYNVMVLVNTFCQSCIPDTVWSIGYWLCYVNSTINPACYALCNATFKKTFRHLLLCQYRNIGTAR
Assay: mAChR M4 cell-based functional assay (calcium flux), human M4
Conditions: Table 10; for EC50: Human M4 EC50 (nM); for Emax: % ACh maximum at 30 μM

[1] = calcium flux, PAM activity with EC20 acetylcholine

Structure (SMILES) | EC50 [1] [nM] | Emax [%] | EC50 (unit μM (bounds)) [nM]
Cc1cc(C)c2c(n1)sc1c(N3CC(c4ccncc4)C3)ncnc12 [Compound 201, 7,9-dimethyl-4-[3-(4-pyridyl)azetidin-1-yl] pyrido[3′,2′:4,5]thieno [3,2-d]pyrimidine] | 341 | 66.5 | –
COc1ccc(C2CC2Nc2ncnc3c2sc2nc(C)cc(C)c23)cc1 (centres unmarked) [Compound 202, N-[2-(4-methoxyphenyl)cyclopropyl]-7,9-dimethyl-pyrido [3′,2′:4,5]thieno[3,2-d] pyrimidin-4-amine] | 1640 | 61.1 | –
Cc1cc(C)c2c(n1)sc1c(NCc3ccc(OC(F)F)nc3)ncnc12 [Compound 203, N-[[6-(difluoromethoxy)-3-pyridyl]methyl]-7.9-dimethyl-pyrido[3′,2′:4,5] thieno[3,2-d]pyrimidin-4-amine] | 4010 | 44.5 | –
Cc1cc(C)c2c(n1)sc1c(NCc3ccc(S(C)(=O)=O)cc3)ncnc12 [Compound 204, 7,9-dimethyl-N-[(4-methylsulfonylphenyl)methyl]pyrido [3′,2′:4,5]thieno[3,2-d] pyrimidin-4-amine] | 294 | 34.5 | –
Cc1cc(C)c2c(n1)sc1c(NCc3cnc(C)nc3)ncnc12 [Compound 205, 7,9-dimethyl-N-[(2-methylpyrimidin-5-yl)methyl]pyrido[3′,2′:4,5] thieno[3,2-d] pyrimidin-4-amine] | 1400 | 54.2 | –
Cc1cc(C)c2c(n1)sc1c(NCc3ccc(C(C)(C)O)cc3)ncnc12 [Compound 206, 2-[4-[[(7,9-dimethylpyrido [3′,2′:4,5]thieno[3,2-d]pyrimidin-4-yl)amino]methyl]phenyl]propan-2-ol] | 910 | 75.8 | –
Cc1cc(C)c2c(n1)sc1c(NC3CN(c4ncc(C(F)(F)F)cn4)C3)ncnc12 [Compound 207, 7,9-dimethyl-N-[1-[5-(trifluoromethyl)pyrimidin-2-yl]azetidin-3-yl]pyrido[3′,2′:4,5] thieno[3,2-d]pyrimidin-4-amine] | 6550 | 51.5 | –
Cc1cc(C)c2c(n1)sc1c(NC3CN(c4ccnc(C5(O)CCC5)c4)C3)ncnc12 [Compound 208, 1-[4-[3-[(7,9-dimethylpyrido [3′,2′:4,5]thieno[3,2-d]pyrimidin-4-yl)amino]azetidin-1-yl]-2-pyridyl]cyclobutanol] | 462 | 75.4 | –
Cc1c(Cl)nnc2sc3c(N4CCCC4)ncnc3c12 [Compound 209, 3-chloro-4-methyl-8-pyrrolidin-1-yl-pyrimido[4′,5′:4,5] thieno[2,3-c]pyridazine] | 55.5 | 89.9 | –
Cc1c(Cl)nnc2sc3c(NC4CCC4)ncnc3c12 [Compound 210, 3-chloro-N-cyclobutyl-4-methyl-pyrimido [4′,5′:4,5]thieno[2,3-c] pyridazin-8-amine] | 44.6 | 65.1 | –
Cc1c(Cl)nnc2sc3c(NCc4ccc(OC(F)F)nc4)ncnc3c12 [Compound 211, 3-chloro-N-[[6-(difluoromethoxy)-3-pyridyl]methyl]-4-methyl-pyrimido [4′,5′:4,5]thieno[2,3-c] pyridazin-8-amine] | 787 | 68.5 | –
COc1ccc(CNc2ncnc3c2sc2nnc(Cl)c(C)c23)cc1F [Compound 212, 3-chloro-N-[(3-fluoro-4-methoxy-phenyl)methyl]-4-methyl-pyrimido[4′,5′:4,5] thieno[2,3-c]pyridazin-8-amine] | 405 | 80 | –
Cc1c(Cl)nnc2sc3c(NCc4ccc(C(C)(C)O)cc4)ncnc3c12 [Compound 213] | – | 97.3 | –
Cc1c(Cl)nnc2sc3c(NC4CN(c5ncc(C(F)(F)F)cn5)C4)ncnc3c12 [Compound 214, 3-chloro-4-methyl-N-[1-[5-(trifluoromethyl)pyrimidin-2-yl]azetidin-3-yl] pyrimido[4′,5′:4,5] thieno[2,3-c]pyridazin-8-amine] | 420 | 105 | –
Cc1c(Cl)cnc2sc3c(N4CCCC4)ncnc3c12 [Compound 215, 8-chloro-9-methyl-4-pyrrolidin-1-yl-pyrido [3′,2′:4,5]thieno[3,2-d] pyrimidine] | 5980 | 45 | –
Cc1c(Cl)cnc2sc3c(N4CCC(F)(F)C4)ncnc3c12 [Compound 216, 8-chloro-4-(3,3-difluoropyrrolidin-1-yl)-9-methyl-pyrido [3′,2′:4,5]thieno[3,2-d] pyridimidine] | 685 | 52.4 | –
COCC1CN(c2ncnc3c2sc2ncc(Cl)c(C)c23)C1 [Compound 218, 8-chloro-4-[3-(methoxymethyl)azetidin-1-yl]-9-methyl-pyrido [3′,2′:4,5]thieno[2,3-d] pyrimidine] | 1020 | 51.3 | –

Structure (SMILES) | EC50 [1] [nM] | Emax [%] | EC50 (unit μM (bounds)) [nM]
Cc1c(Cl)cnc2sc3c(N4CC5CC5C4)ncnc3c12 (centres unmarked) [Compound 219, 4-(3-azabicyclo[3.1.0]hexan-3-yl)-8-chloro-9-methyl-pyrido [3′,2′:4,5]thieno[3,2-d] pyrimidine] | 555 | 47.8 | –
Cc1c(Cl)cnc2sc3c(N4CCC(F)C4)ncnc3c12 (centres unmarked) [Compound 220, 8-chloro-4-(3-fluoropyrrolidin-1-yl)-9-methyl-pyrido [3′,2′:4,5]thieno[3,2-d] pyrimidine] | 885 | 63.8 | –
Cc1c(Cl)cnc2sc3c(N4CCC4)ncnc3c12 [Compound 221, 4-(azetidin-1-yl)-8-chloro-9-methyl-pyrido[3′,2′:4,5] thieno[3,2-d] pyrimidine] | 867 | 40.6 | –
Cc1c(Cl)cnc2sc3c(N4CC(F)(F)C4)ncnc3c12 [Compound 223, 8-chloro-4-(3,3-difluoroazetidin-1-yl)-9-methyl-pyrido [3′,2′:4,5]thieno[3,2-d] pyrimidine] | 931 | 44 | –
Cc1c(Cl)cnc2sc3c(N4CC(c5ccncc5)C4)ncnc3c12 [Compound 224, 8-chloro-9-methyl-4-[3-(4-pyridyl)azetidin-1-yl]pyrido [3′,2′:4,5]thieno[3,2-d] pyrimidine] | 102 | 57.6 | –
Cc1c(Cl)cnc2sc3c(NC4CN(c5ncc(F)cn5)C4)ncnc3c12 [Compound 225, 8-chloro-N-[1-(5-fluoropyrimidin-2-yl)azetidin-3-yl]-9-methyl-pyrido [3′,2′:4,5]thieno[3,2-d] pyrimidin-4-amine] | 841 | 63 | –
Cc1c(Cl)cnc2sc3c(NC4(C)CC4)ncnc3c12 [Compound 226, 8-chloro-9-methyl-N-(1-methylcyclopropyl) pyrido[3′,2′:4,5]thieno [3,2-d]pyrimidin-4-amine] | 481 | 49 | –
Cc1c(Cl)cnc2sc3c(NC4CC4(C)C)ncnc3c12 (centres unmarked) [Compound 227, 8-chloro-N-(2,2-dimethylcyclopropyl)-9-methyl-pyrido[3′,2′:4,5] thieno[3,2-d] pyrimidin-4-amine] | 665 | 56.2 | –
Cc1c(Cl)cnc2sc3c(NC4CCC4)ncnc3c12 [Compound 228, 8-chloro-N-cyclobutyl-9-methyl-pyrido [3′,2′:4,5]thieno[3,2-d] pyrimidin-4-amine] | 3230 | 70 | –
Cc1c(Cl)cnc2sc3c(NCc4ccc(C(=O)N(C)C)cc4)ncnc3c12 [Compound 229, 4-[[(8-chloro-9-methyl-pyrido [3′,2′:4,5]thieno[3,2-d]pyrimidin-4-yl)amino]methyl]-N,N-dimethyl-benzamide] | 1920 | 54.5 | –
COc1cc(CNc2ncnc3c2sc2ncc(Cl)c(C)c23)cc(OC)c1 [Compound 230, 8-chloro-N-[(3,5-dimethoxyphenyl)methyl]-9-methyl-pyrido [3′,2′:4,5]thieno[3,2-d] pyrimidin-4-amine] | – | 37.3 | > 10000
Cc1c(Cl)cnc2sc3c(NC4CN(c5cc(Cl)ncc5Cl)C4)ncnc3c12 [Compound 231, 8-chloro-N-[1-(2,5-dichloro-4-pyridyl)azetidin-3-yl]-9-methyl-pyrido [3′,2′:4,5]thieno[3,2-d] pyrimidin-4-amine] | 3710 | 44.3 | –
Cc1c(Cl)cnc2sc3c(NCc4ccc(CN5CCOCC5)cc4)ncnc3c12 [Compound 232, 8-chloro-9-methyl-N-[[4-(morpholinomethyl)phenyl]methyl]pyrido [3′,2′:4,5]thieno[3,2-d] pyrimidin-4-amine] | 9780 | 69.8 | –
Cc1c(Cl)cnc2sc3c(NCc4ccc5c(c4)CC(C)(C)O5)ncnc3c12 [Compound 233, 8-chloro-N-[(2,2-dimethyl-3H-benzofuran-5-yl)methyl]-9-methyl-pyrido [3′,2′:4,5]thieno[3,2-d] pyrimidin-4-amine] | 5510 | 40.6 | –
Cc1c(Cl)cnc2sc3c(NCc4ccc5c(c4)COC5)ncnc3c12 [Compound 234, 8-chloro-N-(1,3-dihydroisobenzofuran-5-ylmethyl)-9-methyl-pyrido [3′,2′:4,5]thieno[3,2-d] pyrimidin-4-amine] | 5580 | 56.1 | –
Cc1c(Cl)cnc2sc3c(NCc4cnc5c(c4)CCC5)ncnc3c12 [Compound 235, 8-chloro-N-(6,7-dihydro-5H-cyclopenta[b]pyridin-3-ylmethyl)-9-methyl-pyrido [3′,2′:4,5]thieno[3,2-d] pyrimidin-4-amine] | 2890 | 31.8 | –
